Assay [1] addresses T1, GTPase KRas (Homo sapiens, UniProt P01116, G12C). Briefly: Inhibition of BODIPY loaded KRAS G12C mutant (unknown origin) assessed as inhibition of GDP-GTP exchange rate preincubated for 2 hrs and measured after 2 hrs in presence of SOS1-GppNHp mixture by BODIPY fluorescence based PHERAstar plate reader analysis.
Assay [2] addresses T1, GTPase KRas. Briefly: Inhibition of KRAS G12C mutant in human MIA PaCa-2 cells assessed as reduction in phosphorylated ERK level incubation for 2 to 4 hrs by HTRF assay. The class given is cell-based.

Each structure is given as a SMILES string. pIC50: −log10 of the molar value. A value given as a limit tells only on which side of the number the result lay.

For six compounds, IC50 results are on record in ChEMBL document CHEMBL5131551, “Novel Bicyclic Dione Compounds as KRAS Inhibitors for Treating Cancer” (ACS Med Chem Lett, 2022).

T1 sequence (P01116 whole entry G12C): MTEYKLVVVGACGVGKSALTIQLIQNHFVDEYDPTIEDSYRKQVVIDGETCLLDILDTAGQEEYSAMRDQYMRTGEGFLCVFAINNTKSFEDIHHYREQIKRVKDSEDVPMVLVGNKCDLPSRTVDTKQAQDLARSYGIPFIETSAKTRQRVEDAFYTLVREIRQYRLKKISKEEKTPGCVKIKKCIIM

Take `C=CC(=O)N1CC(F)(Cn2c(=O)c(=O)n(-c3c(C)ccnc3C(C)C)c3nc(-c4c(F)ccc(F)c4O)c(Cl)cc32)C1`: the pIC50 at GTPase KRas [1] and at GTPase KRas [2] was not below 7.00 in each case.

As to `C=CC(=O)N1CC(F)(Cn2c(=O)c(=O)n(-c3c(C)ccnc3C(C)C)c3nc(-c4ccccc4F)c(Cl)cc32)C1`, the pIC50 on GTPase KRas [1] and on GTPase KRas [2] was not below 7.00 in each case.

For the compound `C=CC(=O)N1CC(F)(Cn2c(=O)c(=O)n(-c3c(C)ccnc3C(C)C)c3nc(-c4c(N)cccc4F)c(Cl)cc32)C1`, the pIC50 at GTPase KRas [1] and at GTPase KRas [2] was not below 7.00 throughout.

As to `C=CC(=O)N1CC(F)(Cn2c(=O)c(=O)n(-c3c(C)ccnc3C(C)C)c3nc(-c4c(Cl)ccc5c4OCO5)c(Cl)cc32)C1`, the negative logarithm of the IC50 (pIC50) at GTPase KRas [1] and at GTPase KRas [2] was not below 7.00 in each case.

Take `C=CC(=O)N1CC(F)(Cn2c(=O)c(=O)n(-c3c(C)ccnc3C(C)C)c3nc(-c4cccc(Cl)c4Cl)c(Cl)cc32)C1`: the pIC50 at GTPase KRas [1] and on GTPase KRas [2] was not below 7.00 in each case.

Regarding `C=CC(=O)N1CC(F)(Cn2c(=O)c(=O)n(-c3c(C(C)C)cccc3C(C)C)c3nc(-c4cc(O)cc5ccccc45)c(Cl)cc32)C1`, the negative logarithm of the IC50 (pIC50) at GTPase KRas [1] and on GTPase KRas [2] was not below 7.00 in each case.
